Source: PubChem BioAssay AID256 (DTP/NCI, 2004)
“And” between values parts separate entries of the source, which are not always exact repeats. Identical values can stand only once. Inconclusive results and toxic doses are left out. Rule for the calls: active = survival T/C of 150% or more; inactive = T/C below 125% in these data.

System: CD2F1 mice, L1210 leukemia ip, survival T/C
Assay: NCI In Vivo Anticancer Drug Screen. Data for tumor model L1210 Leukemia (intraperitoneal) in CD2F1 (CDF1) mice
Details: higher = longer survival
Summary of the method: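 Transplantable tumor in mice; compound-treated vs vehicle-treated groups. Read-out = treated/control ratio of the measured endpoint.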

[1] = endpoint: mean survival time, dose: 100.0 mg/kg/injection, schedule: Q01DX009 (ip), vehicle: saline with Tween-80
[2] = endpoint: mean survival time, dose: 100.0 mg/kg/injection, schedule: Q04DX003 (ip), vehicle: saline with Tween-80
[3] = endpoint: mean survival time, dose: 200.0 mg/kg/injection, schedule: Q04DX003 (ip), vehicle: saline with Tween-80
[4] = endpoint: mean survival time, dose: 400.0 mg/kg/injection, schedule: Q04DX003 (ip), vehicle: saline with Tween-80
[5] = endpoint: mean survival time, dose: 200.0 mg/kg/injection, schedule: Q01DX009 (ip), vehicle: saline with Tween-80
[6] = endpoint: mean survival time, dose: 400.0 mg/kg/injection, schedule: Q01DX009 (ip), vehicle: saline with Tween-80
[7] = endpoint: mean survival time, dose: 100.0 mg/kg/injection, schedule: Q04DX003 (ip), vehicle: saline
[8] = endpoint: mean survival time, dose: 200.0 mg/kg/injection, schedule: Q04DX003 (ip), vehicle: saline
[9] = endpoint: mean survival time, dose: 400.0 mg/kg/injection, schedule: Q04DX003 (ip), vehicle: saline
[10] = endpoint: mean survival time, dose: 25.0 mg/kg/injection, schedule: Q04DX003 (ip), vehicle: saline with Tween-80
[11] = endpoint: mean survival time, dose: 50.0 mg/kg/injection, schedule: Q04DX003 (ip), vehicle: saline with Tween-80
[12] = endpoint: mean survival time, dose: 6.25 mg/kg/injection, schedule: Q01DX009 (ip), vehicle: saline with Tween-80
[13] = endpoint: mean survival time, dose: 12.5 mg/kg/injection, schedule: Q01DX005 (ip), vehicle: distilled water + Tween-80
[14] = endpoint: mean survival time, dose: 25.0 mg/kg/injection, schedule: Q01DX005 (ip), vehicle: distilled water + Tween-80

Measured: T/C

CC(=O)c1ccc2c3c(ccc([N+](=O)[O-])c13)CC2
inactive: [1] 94 % of control | [2] 100 % of control and 98 % of control | [3] 100 % of control and 98 % of control | [4] 98 % of control and 101 % of control

N#C/C(=C\c1cc(Cl)ccc1O)C1CCC([N+](=O)[O-])CC1 (configuration not stated)
inactive: [1] 86 % of control | [5] 93 % of control | [6] 91 % of control

NCc1cnc(N)nc1N
inactive: [2] 98 % of control | [3] 102 % of control

COc1cc(NCCCNCC(C)(C)C)c2ncccc2c1
inactive: endpoint: mean survival time, dose: 1.25 mg/kg/injection, schedule: Q01DX009 (ip), vehicle: Klucel (hydroxypropylcellulose) (HPC) 98 % of control | endpoint: mean survival time, dose: 2.5 mg/kg/injection, schedule: Q01DX009 (ip), vehicle: Klucel (hydroxypropylcellulose) (HPC) 105 % of control | endpoint: mean survival time, dose: 5.0 mg/kg/injection, schedule: Q01DX009 (ip), vehicle: Klucel (hydroxypropylcellulose) (HPC) 100 % of control | endpoint: mean survival time, dose: 10.0 mg/kg/injection, schedule: Q01DX009 (ip), vehicle: Klucel (hydroxypropylcellulose) (HPC) 105 % of control

CN(N=O)C(=O)NCC1OC(OC2(CNC(=O)N(C)N=O)OC(CNC(=O)N(C)N=O)C(O)C2O)C(O)C(O)C1O (configuration not stated)
inactive: endpoint: mean survival time, dose: 12.5 mg/kg/injection, schedule: Q01DX009 (ip), vehicle: water 102 % of control | endpoint: mean survival time, dose: 25.0 mg/kg/injection, schedule: Q01DX009 (ip), vehicle: water 104 % of control | endpoint: mean survival time, dose: 50.0 mg/kg/injection, schedule: Q01DX009 (ip), vehicle: water 110 % of control | endpoint: mean survival time, dose: 100.0 mg/kg/injection, schedule: Q01DX009 (ip), vehicle: water 117 % of control

Cc1ccc(C(=O)c2cnc(C)n2Cc2ccccc2)cc1
inactive: [1] 92 % of control | [5] 92 % of control | [6] 97 % of control

CCCCN(CCCC)C(Cl)=Nc1ccccc1
inactive: endpoint: mean survival time, dose: 6.25 mg/kg/injection, schedule: Q01DX009 (ip), vehicle: Klucel (hydroxypropylcellulose) (HPC) 95 % of control and 105 % of control | endpoint: mean survival time, dose: 12.5 mg/kg/injection, schedule: Q01DX009 (ip), vehicle: Klucel (hydroxypropylcellulose) (HPC) 92 % of control and 104 % of control | endpoint: mean survival time, dose: 25.0 mg/kg/injection, schedule: Q01DX009 (ip), vehicle: Klucel (hydroxypropylcellulose) (HPC) 94 % of control and 95 % of control | endpoint: mean survival time, dose: 50.0 mg/kg/injection, schedule: Q01DX009 (ip), vehicle: Klucel (hydroxypropylcellulose) (HPC) 94 % of control and 95 % of control | endpoint: mean survival time, dose: 100.0 mg/kg/injection, schedule: Q01DX009 (ip), vehicle: Klucel (hydroxypropylcellulose) (HPC) 93 % of control | endpoint: mean survival time, dose: 200.0 mg/kg/injection, schedule: Q01DX009 (ip), vehicle: Klucel (hydroxypropylcellulose) (HPC) 90 % of control

Cn1cc(NC(=O)c2cc(NC(=O)c3cc(NC=O)cn3C)cn2C)cc1C(=O)NCCC(=N)N
inactive: endpoint: mean survival time, dose: 100.0 mg/kg/injection, schedule: Q04DX003 (ip), vehicle: alcohol 108 % of control | endpoint: mean survival time, dose: 200.0 mg/kg/injection, schedule: Q04DX003 (ip), vehicle: alcohol 102 % of control | endpoint: median survival time, dose: 12.5 mg/kg/injection, schedule: Q01DX009 (ip), vehicle: water 104 % of control | endpoint: median survival time, dose: 25.0 mg/kg/injection, schedule: Q01DX009 (ip), vehicle: water 100 % of control | endpoint: median survival time, dose: 50.0 mg/kg/injection, schedule: Q01DX009 (ip), vehicle: water 103 % of control | endpoint: median survival time, dose: 100.0 mg/kg/injection, schedule: Q01DX009 (ip), vehicle: water 108 % of control

COc1ccc(-c2nc(N)nc3c2CN(CCCC(=O)O)C3=O)cc1
inactive: [7] 98 % of control | [8] 98 % of control | [9] 96 % of control

CC#CC(=O)SCCNC(=O)CC(C)(C)C
inactive: endpoint: mean survival time, dose: 25.0 mg/kg/injection, schedule: Q01DX009 (ip), vehicle: saline with Tween-80 96 % of control | [10] 105 % of control | endpoint: mean survival time, dose: 50.0 mg/kg/injection, schedule: Q01DX009 (ip), vehicle: saline with Tween-80 96 % of control | [11] 96 % of control | [1] 95 % of control | [2] 106 % of control | [5] 97 % of control | [3] 98 % of control

COC(=O)[CH](C[N+](=O)[O-])[Hg][Cl] (configuration not stated)
inactive: [12] 97 % of control | endpoint: mean survival time, dose: 12.5 mg/kg/injection, schedule: Q04DX003 (ip), vehicle: saline 94 % of control

Cc1cc(=O)oc2cc(OC(=O)C(CCCCN)NC(=O)OCc3ccccc3)ccc12 (configuration not stated)
inactive: endpoint: mean survival time, dose: 12.5 mg/kg/injection, schedule: Q01DX009 (ip), vehicle: other 107 % of control | endpoint: mean survival time, dose: 25.0 mg/kg/injection, schedule: Q01DX009 (ip), vehicle: other 106 % of control | endpoint: mean survival time, dose: 50.0 mg/kg/injection, schedule: Q01DX009 (ip), vehicle: other 107 % of control | endpoint: mean survival time, dose: 100.0 mg/kg/injection, schedule: Q01DX009 (ip), vehicle: other 101 % of control

O=c1[nH]c2ccccc2[nH]1
inactive: [2] 100 % of control | [3] 95 % of control | [4] 103 % of control

Cc1ccc2ncccc2c1[N+](=O)[O-]
inactive: [2] 101 % of control | [3] 95 % of control

COc1ccc2nc3cc(Cl)ccc3c(NCCC[N+](C)(C)CCCCCCCCCC[N+](C)(C)CCCNc3c4ccc(Cl)cc4nc4ccc(OC)cc34)c2c1
inactive: [12] 105 % of control

N=c1ccn2c(n1)OC1C(OC(=O)C34CC5CC(CC(C5)C3)C4)C(COC(=O)C34CC5CC(CC(C5)C3)C4)OC12 (configuration not stated)
inactive: [13] 104 % of control | [14] 107 % of control | endpoint: mean survival time, dose: 50.0 mg/kg/injection, schedule: Q01DX005 (ip), vehicle: distilled water + Tween-80 121 % of control

CCCCCCCSc1nc2ccccc2s1
inactive: endpoint: mean survival time, dose: 100.0 mg/kg/injection, schedule: Q04DX002 (ip), vehicle: saline with Tween-80 95 % of control | endpoint: mean survival time, dose: 200.0 mg/kg/injection, schedule: Q04DX002 (ip), vehicle: saline with Tween-80 98 % of control | endpoint: mean survival time, dose: 400.0 mg/kg/injection, schedule: Q04DX002 (ip), vehicle: saline with Tween-80 90 % of control

COc1ccc(NC(=O)c2ccc(S(=O)(=O)F)cc2)cc1
inactive: endpoint: mean survival time, dose: 100.0 mg/kg/injection, schedule: Q01DX001 (ip), vehicle: saline with Tween-80 97 % of control | endpoint: mean survival time, dose: 200.0 mg/kg/injection, schedule: Q01DX001 (ip), vehicle: saline with Tween-80 95 % of control | endpoint: mean survival time, dose: 400.0 mg/kg/injection, schedule: Q01DX001 (ip), vehicle: saline with Tween-80 94 % of control

O=S(=O)(O)SCCN1CCCCC1
inactive: endpoint: mean survival time, dose: 12.5 mg/kg/injection, schedule: Q01DX009 (ip), vehicle: saline 104 % of control | endpoint: mean survival time, dose: 12.5 mg/kg/injection, schedule: Q04DX003 (ip), vehicle: saline sonified 102 % of control | endpoint: mean survival time, dose: 25.0 mg/kg/injection, schedule: Q01DX009 (ip), vehicle: saline 106 % of control | endpoint: mean survival time, dose: 25.0 mg/kg/injection, schedule: Q04DX003 (ip), vehicle: saline sonified 101 % of control | endpoint: mean survival time, dose: 50.0 mg/kg/injection, schedule: Q01DX009 (ip), vehicle: saline 104 % of control | endpoint: mean survival time, dose: 50.0 mg/kg/injection, schedule: Q04DX003 (ip), vehicle: saline sonified 91 % of control

COC1CC2c3ccccc3C1C(C)=[N+]2C (configuration not stated)
inactive: [7] 101 % of control | [8] 95 % of control | [9] 94 % of control

NC(CCc1cc(O)ccc1O)C(=O)O (configuration not stated)
inactive: endpoint: mean survival time, dose: 100.0 mg/kg/injection, schedule: Q01DX009 (ip), vehicle: saline 98 % of control | endpoint: mean survival time, dose: 200.0 mg/kg/injection, schedule: Q01DX009 (ip), vehicle: saline 98 % of control | endpoint: mean survival time, dose: 400.0 mg/kg/injection, schedule: Q01DX009 (ip), vehicle: saline 102 % of control

C1CC[N-]CC1.C1CC[N-]CC1.O=C(O)CC(=O)O.[Pt+2]
inactive: endpoint: mean survival time, dose: 3.13 mg/kg/injection, schedule: Q04DX003 (ip), vehicle: saline with Tween-80 100 % of control | endpoint: mean survival time, dose: 6.25 mg/kg/injection, schedule: Q04DX003 (ip), vehicle: saline with Tween-80 97 % of control | endpoint: mean survival time, dose: 12.5 mg/kg/injection, schedule: Q04DX003 (ip), vehicle: saline with Tween-80 100 % of control | [10] 100 % of control | [11] 97 % of control | [2] 100 % of control | [3] 96 % of control

OC(Cc1cc(CC(O)(C(F)(F)F)C(F)(F)F)ncn1)(C(F)(F)F)C(F)(F)F
inactive: [2] 97 % of control | [3] 93 % of control | [4] 91 % of control

c1ccc2[nH]c(C3CCCCN3)cc2c1 (configuration not stated)
inactive: endpoint: mean survival time, dose: 100.0 mg/kg/injection, schedule: Q01DX001 (ip), vehicle: saline 101 % of control | endpoint: mean survival time, dose: 200.0 mg/kg/injection, schedule: Q01DX001 (ip), vehicle: saline 96 % of control

O=c1ccn(C2CC3[O][Sn]([c]4ccccc4)([c]4ccccc4)[O]CC3O2)c(=O)[nH]1 (configuration not stated)
inactive: endpoint: mean survival time, dose: 6.25 mg/kg/injection, schedule: Q01DX005 (ip), vehicle: distilled water + Tween-80 104 % of control | [13] 98 % of control | [14] 108 % of control | endpoint: mean survival time, dose: 100.0 mg/kg/injection, schedule: Q01DX005 (ip), vehicle: distilled water + Tween-80 90 % of control
